Measured values: patent publication US8859569B2, “Substituted annellated pyrimidines and use thereof” (Bayer Pharma Aktiengesellschaft, priority 2011, dated 2014)

What was measured:
[1] = test system: aorta rings; assay: Vessel-relaxing action in vitro (aorta rings, phenylephrine contraction); conditions: Oryctolagus cuniculus, concentration required to reduce phenylephrine-induced contraction of rabbit aorta rings by 50%
Method in brief: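 Rabbit aortic rings 1.5 mm wide were held under preload in carbogen-gassed Krebs-Henseleit at 37 °C and contracted with cumulative phenylephrine. Test substance was added in rising doses on successive passes, each compared with the preceding control contraction. IC50 is the concentration that halves contraction, with 0.1% DMSO in the bath.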

[2] = biological target: T1, human phosphodiesterase 5 (PDE-5) (Homo sapiens, UniProt O76074); assay: Inhibition of human phosphodiesterase 5 (PDE-5), SPA assay; type: biochemical; conditions: PDE-5 preparation from human platelets, [8-3H]cGMP substrate
T1 construct: PDE-5 preparations are obtained from human platelets by lysis; from tissue; host or cells: human platelets
Method in brief: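 PDE-5 partially purified from human platelets by Mono Q chromatography, diluted so under 70% of [8-3H]cGMP (0.025 μCi) converted. Compounds at 4 μM to 0.0018 μM final, Tris-HCl pH 7.5 with MgCl2, 60 min at room temperature. Yttrium SPA beads stop reaction; IC50 from concentration–inhibition plots.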

[3] = biological target: T2, recombinant guanylate cyclase reporter cell line (Rattus norvegicus, UniProt P19686+P20595); assay: Action on recombinant guanylate cyclase reporter cell line; type: cell-based
T2 construct: expressed in transfected cells
T2 sequence (P20595 1-619): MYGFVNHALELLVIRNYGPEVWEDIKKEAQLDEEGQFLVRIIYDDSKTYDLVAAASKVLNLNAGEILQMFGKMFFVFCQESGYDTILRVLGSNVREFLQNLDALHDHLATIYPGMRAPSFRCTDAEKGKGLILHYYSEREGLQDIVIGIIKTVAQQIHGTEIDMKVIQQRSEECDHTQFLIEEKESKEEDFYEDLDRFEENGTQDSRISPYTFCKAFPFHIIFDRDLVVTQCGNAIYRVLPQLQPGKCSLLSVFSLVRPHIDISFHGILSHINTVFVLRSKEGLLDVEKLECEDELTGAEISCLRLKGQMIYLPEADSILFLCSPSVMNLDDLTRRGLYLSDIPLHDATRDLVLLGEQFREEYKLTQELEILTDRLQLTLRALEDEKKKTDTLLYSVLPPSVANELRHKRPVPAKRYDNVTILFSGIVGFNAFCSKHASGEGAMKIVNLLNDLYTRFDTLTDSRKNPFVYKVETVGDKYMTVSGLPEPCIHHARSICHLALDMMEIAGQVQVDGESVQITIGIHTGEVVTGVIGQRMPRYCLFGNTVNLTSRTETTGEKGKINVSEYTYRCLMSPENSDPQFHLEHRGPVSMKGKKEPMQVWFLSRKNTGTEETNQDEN
T2 sequence (P19686 1-690): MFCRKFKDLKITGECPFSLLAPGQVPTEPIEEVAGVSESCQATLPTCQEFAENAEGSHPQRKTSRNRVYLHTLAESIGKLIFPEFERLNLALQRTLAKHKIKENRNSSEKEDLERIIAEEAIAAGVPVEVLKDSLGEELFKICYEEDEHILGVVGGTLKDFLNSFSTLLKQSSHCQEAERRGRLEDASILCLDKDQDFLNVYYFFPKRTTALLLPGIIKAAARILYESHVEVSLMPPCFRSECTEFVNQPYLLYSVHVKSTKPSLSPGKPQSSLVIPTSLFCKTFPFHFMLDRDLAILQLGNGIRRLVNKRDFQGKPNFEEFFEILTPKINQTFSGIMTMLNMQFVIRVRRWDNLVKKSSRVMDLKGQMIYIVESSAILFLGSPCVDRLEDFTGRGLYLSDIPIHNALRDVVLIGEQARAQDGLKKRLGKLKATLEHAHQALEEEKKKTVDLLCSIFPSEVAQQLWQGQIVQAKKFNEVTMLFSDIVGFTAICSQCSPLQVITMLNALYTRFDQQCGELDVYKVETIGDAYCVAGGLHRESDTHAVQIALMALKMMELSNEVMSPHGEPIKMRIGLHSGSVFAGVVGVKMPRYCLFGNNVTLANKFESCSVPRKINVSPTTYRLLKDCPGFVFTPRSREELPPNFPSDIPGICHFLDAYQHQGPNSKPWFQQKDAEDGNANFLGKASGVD
Procedure: B-2. Action on Recombinant Guanylate Cyclase Reporter Cell Line
The cellular action of the compounds according to the invention is determined on a recombinant guanylate cyclase reporter cell line, as described in F. Wunder et al., Anal. Biochem. 339, 104-112 (2005).

Row | IC50 [1] | IC50 [2] | MEC (minimal effective concentration) [3] | Structure (SMILES)
1 | 1.62 µM | 0.21 µM | 0.1 μm | CCOc1nc(-c2nn(Cc3ccccc3F)c3ncccc23)nc2c1C(C)(C)C(=O)N2 [Example 112, 4-Ethoxy-2-[1-(2-fluorobenzyl)-1H-pyrazolo[3,4-b]pyridin-3-yl]-5,5-dimethyl-5,7-dihydro-6H-pyrrolo[2,3-d]pyrimidin-6-one]
2 | 1.96 µM | 0.12 µM | 0.1 μm | CC1(C)C(=O)Nc2nc(-c3nn(Cc4ccccc4F)c4ncccc34)nc(OCC3CC3)c21 [Example 113, 4-(Cyclopropylmethoxy)-2-[1-(2-fluorobenzyl)-1H-pyrazolo[3,4-b]pyridin-3-yl]-5,5-dimethyl-5,7-dihydro-6H-pyrrolo[2,3-d]pyrimidin-6-one]
3 | 1.63 µM | 0.25 µM | 0.3 μm | CC1(C)C(=O)Nc2nc(-c3nn(Cc4ccccc4F)c4ncccc34)nc(OCC(F)(F)F)c21 [Example 115, 2-[1-(2-Fluorobenzyl)-1H-pyrazolo[3,4-b]pyridin-3-yl]-5,5-dimethyl-4-(2,2,2-trifluoroethoxy)-5,7-dihydro-6H-pyrrolo[2,3-d]pyrimidin-6-one]
4 | 0.038 µM | 0.052 µM | 0.03 μm | CC1(C)C(=O)Nc2nc(-c3nn(Cc4ccccc4F)c4ncccc34)nc(OCCO)c21 [Example 117, 2-[1-(2-Fluorobenzyl)-1H-pyrazolo[3,4-b]pyridin-3-yl]-4-(2-hydroxyethoxy)-5,5-dimethyl-5,7-dihydro-6H-pyrrolo[2,3-d]pyrimidin-6-one]
